The source of these data is patent US10675254B2, “Sphingosine-1-phosphate receptor agonist iontophoretic devices and methods of using the same” (Teikoku Seiyaku Co., Ltd., priority 2013, dated 2020).

Data set [1] in a line: In vitro iontophoretic delivery (active + passive) of Fingolimod HCl through epidermis of cadaver skin, Franz cell. It is filed as in vitro ADME. The note with it: for Active + passive Maximum delivery efficiency: donor 0.5% Fingolimod HCl solution, 8 hr; for Active + passive Maximum delivery efficiency / Active + passive Average delivery efficiency: 0.425 mA, 1.77 cm2; for Active + passive Average delivery efficiency: Ag anode/AgCl cathode, 48 hr.

A short description of data set [2]: In vitro passive delivery of Fingolimod HCl through epidermis of cadaver skin, Franz cell (control). Conditions: for Passive Maximum delivery efficiency: donor 0.5% Fingolimod HCl solution, 8 hr; for Passive Maximum delivery efficiency / Passive Average delivery efficiency: 1.77 cm2; for Passive Average delivery efficiency: 48 hr. It is filed as in vitro ADME. An excerpt: Passive delivery under the same experimental conditions was also concurrently investigated with the iontophoretic delivery and employed as a control. […] The maximum efficiency could be reached at a concentration of less than 0.25%. After 8 hr., some passive delivery of fingolimod HCl through the skin was also observed. This observation may have resulted from the imperfection of the skin and the experimental design. In this study, the presence of pores from the micro-sized damage of the epidermis during the preparation of the epidermal membrane and from the appendages (hair follicles, sweat ducts) might facilitate the contact between donor and receptor site and contribute to the passive delivery of fingolimod HCl solution into the receptor solution.

The conditions of data set [3]: orally administered fingolimod HCl; cited from earlier work.
The mark [4] stands for this setting: donor 0.25% fingolimod HCl solution, receptor 0.09% NaCl.
Setting [5] is: donor 0.50% fingolimod HCl solution, receptor 0.09% NaCl.
Where [6] appears, read: donor 0.75% fingolimod HCl solution, receptor 0.09% NaCl.
[7] abbreviates: donor 1% fingolimod HCl solution, receptor 0.09% NaCl.
[8] abbreviates: donor 2% fingolimod HCl solution, receptor 0.09% NaCl.

Molecules are shown by their SMILES. Counter-ions that a name gives are not always drawn.

In the case of `CCCCCCCCc1ccc(CCC(N)(CO)CO)cc1` [Fingolimod HCl, 2-amino-2-[2-(4-octylphenyl)ethyl]propane-1,3-diol], the “delivery efficiency (active+passive)” value in data set [1] (0.25, 0.5, 0.75, 1 and 2% fingolimod HCl solutions, current 0.425 mA, area 1.77 cm^2) was “about 4.5 μg/cm2/hr”. The “Active + passive Maximum delivery efficiency” value in data set [1] (Ag/AgCl electrodes, receptor 0.9% NaCl) came out at 5.0 ug/cm2/hr; in data set [1] (Zn/AgCl electrodes, receptor 0.09% NaCl), 16.8 ug/cm2/hr; in data set [1] (Zn/AgCl electrodes, receptor 0.9% NaCl) it was 5.8 ug/cm2/hr. In addition, the “Active + passive Average delivery efficiency” value in data set [1] (setting [4]) was found to be 4.8 ug/cm2/hr; in data set [1] (setting [5]), 5.0 ug/cm2/hr; in data set [1] (setting [6]) it was 4.5 ug/cm2/hr; in data set [1] (setting [7]), 4.5 ug/cm2/hr; in data set [1] (setting [8]), 4.2 ug/cm2/hr. Besides, the “Passive Maximum delivery efficiency” value in data set [2] (receptor 0.09% NaCl) and in data set [2] (receptor 0.9% NaCl) was 0 ug/cm2/hr each time. For the same compound, the “Passive Average delivery efficiency” value in data set [2] (setting [4]) is on record as 0.8 ug/cm2/hr; in data set [2] (setting [5]), 0.9 ug/cm2/hr; in data set [2] (setting [6]), 0.8 ug/cm2/hr; in data set [2] (setting [7]) it was 0.7 ug/cm2/hr; in data set [2] (setting [8]), 1.4 ug/cm2/hr. Also, the passive delivery detected result in data set [2] (over an 8 h period, 0.5% Fingolimod HCl solution) is recorded as “no Fingolimod HCl delivery was detected”. For the same compound, the “peak to trough fluctuations, non-phosphorylated fingolimod” value in data set [3] was ≤ 20%. Moreover, in data set [3], the “peak to trough fluctuations, phosphorylated (active) form of fingolimod” value is ≤ 45%.
